The target in one test is Protein kinase C (PKC). Put plainly: Inhibitory activity against protein kinase C (PKC). In kind it is protein assay, Homo sapiens.
In test [1] the target is Protein kinase C, PKC; classical/novel (Homo sapiens) (UniProt O94806+P17252+P05129+Q05655+P05771+Q02156+P24723+Q15139+Q04759). Put plainly: Displacement of phorbol [3H]PDBu from protein kinase C; A - Did displace phorbol (PDBu) at 50 uM or less. In kind it is protein assay.
Test [2] can be described thus: Inhibition of c-AMP kinase PKA. Also noted: species or system Bos taurus.
Test [3] in a line: Inhibitory activity against c-AMP kinase; Did not inhibit c-AMP kinase.

What is called IC50 is the concentration needed to halve the response being measured.

Consider `O=C(O[C@@H]1O[C@@H]2COC(=O)c3cc(Oc4c(C(=O)O)cc(O)c(O)c4O)c(O)c(O)c3-c3c(cc(O)c(O)c3O)C(=O)O[C@H]([C@H]1O)[C@@H]2O)c1cc(O)c(O)c(O)c1`, for which the IC50 at Protein kinase C (PKC) was found to be 20 µM; in test [2], 100 µM. Besides, the Phorbol displacement in test [1] was below 50 µM.

Regarding `O=C1OCC2OC(=O)c3cc(O)c(O)c(O)c3-c3c(O)c(O)c(O)c4c3C(=O)OC(C2OC(=O)c2cc(O)c(O)c(O)c2-c2c1cc(O)c(O)c2O)C1OC(=O)C2C4=C(O)C(=O)C23Oc2cc(O)c4c(c2[C@H]13)O[C@H](c1ccc(O)c(O)c1)[C@@H](O)C4` (stereo partly specified), the IC50 came out at 4 µM against Protein kinase C (PKC) and 44 µM in test [2]. The Phorbol displacement in test [1] is below 50 µM.

Turning to `O=C1O[C@H]2[C@@H]3OC(=O)c4cc(O)c(O)c(O)c4-c4c(cc(Oc5c(C(=O)O)cc(O)c(O)c5O)c(O)c4O)C(=O)OC[C@H]2O[C@@H](OC(=O)c2cc(O)c(O)c(O)c2)[C@@H]3OC(=O)c2cc(O)c(O)c3c2C2C1=CC(=O)C(O)(O)C2(O)O3` (stereo partly specified) [E181], the IC50 against Protein kinase C (PKC) is 16 µM; in test [2], 65 µM. The Phorbol displacement in test [1] is below 50 µM.

As to `O=C(OC[C@@H]1O[C@@H](OC(=O)c2cc(O)c(O)c(O)c2)[C@@H](OC(=O)c2cc(O)c(O)c(O)c2)[C@@H](OC(=O)c2cc(O)c(O)c(O)c2)[C@@H]1OC(=O)c1cc(O)c(O)c(O)c1Oc1cc2c(c(O)c1O)-c1c(cc(O)c(O)c1O)C(=O)OC[C@@H]1O[C@@H](OC(=O)c3cc(O)c(O)c(O)c3)[C@@H](OC(=O)c3cc(O)c(O)c(O)c3)[C@@H](OC(=O)c3cc(O)c(O)c(O)c3)[C@@H]1OC2=O)c1cc(O)c(O)c(O)c1`, the IC50 at Protein kinase C (PKC) was 3 µM; in test [2], 32 µM. In addition, the Phorbol displacement in test [1] is below 50 µM.

Turning to `O=C(OC1COC(=O)c2cc(O)c(O)c(O)c2-c2c(cc(O)c(O)c2O)C(=O)OC1C1OC(=O)c2cc(O)c(O)c(O)c2-c2c(O)c(O)c(O)c3c2C(=O)OC1[C@@H]3O)c1cc(O)c(O)c(O)c1` (stereo partly specified), the IC50 against Protein kinase C (PKC) worked out at 11 µM; in test [2], 84 µM. The compound further displayed a Phorbol displacement in test [1] below 50 µM.

`O=C1OCC2OC(=O)c3cc(O)c(O)c(O)c3-c3c(O)c(O)c(O)c4c3C(=O)OC(C2OC(=O)c2cc(O)c(O)c(O)c2-c2c1cc(O)c(O)c2O)C1OC(=O)c2c-4c(O)c(O)c(O)c2[C@@H]1c1c(O)cc(O)c2c1O[C@H](c1ccc(O)c(O)c1)[C@@H](O)C2` (stereo partly specified): the IC50 was 7 µM at Protein kinase C (PKC) and 95 µM in test [2]. This compound also had a Phorbol displacement in test [1] below 50 µM.

As to `O=C(O[C@@H]1O[C@H]2COC(=O)c3cc(O)c(O)c(O)c3-c3c(cc(O)c(O)c3O)C(=O)O[C@H]2[C@@H]2OC(=O)c3cc(O)c(O)c(O)c3-c3c(cc(O)c(O)c3O)C(=O)O[C@H]12)c1cc(O)c(O)c(Oc2c(O)c(O)c(O)c3c2C(=O)O[C@H]2[C@@H]4OC(=O)c5cc(O)c(O)c(O)c5-c5c(cc(O)c(O)c5O)C(=O)O[C@@H]4[C@H](OC(=O)c4cc(O)c(O)c(O)c4)O[C@H]2COC(=O)c2cc(O)c(O)c(O)c2-3)c1`, the IC50 worked out at 5 µM against Protein kinase C (PKC) and 48 µM in test [2]. Also, the Phorbol displacement in test [1] is below 50 µM.

In the case of `O=C1O[C@H]2[C@H](OC(=O)c3cc(O)c(O)c(O)c3)[C@@H](OC(=O)c3cc(O)c(O)c4c3C3C1=CC(=O)C(O)(O)C3(O)O4)[C@@H](OC(=O)c1cc(O)c(O)c(O)c1)O[C@@H]2COC(=O)c1cc(O)c(O)c(O)c1` (stereo partly specified), the results for the half-inhibitory concentration (IC50) (at Protein kinase C (PKC); in test [3]) were 16 µM and “Not Active”, respectively. For the same compound, the Phorbol displacement in test [1] is below 50 µM.

As for `O=C(O[C@@H]1[C@@H](c2c(O)cc(O)c3c2O[C@H](c2ccc(O)c(O)c2)[C@H](OC(=O)c2cc(O)c(O)c(O)c2)C3)c2c(O)cc(O)cc2O[C@@H]1c1ccc(O)c(O)c1)c1cc(O)c(O)c(O)c1`, the values for the IC50 (against Protein kinase C (PKC); in test [3]) were 4 µM and “Not Active”, respectively. This compound yielded a Phorbol displacement in test [1] below 50 µM.

As for `O=C(OC1Cc2c(O)cc(O)cc2O[C@@H]1c1ccc(O)c(O)c1)c1cc(O)c(O)c(O)c1` (stereo partly specified), the IC50 against Protein kinase C (PKC) was 48 µM; in test [3] it was “Not Active”. The compound further displayed a Phorbol displacement in test [1] below 50 µM.

With `Oc1cc(O)c2c(c1)O[C@H](c1ccc(O)c(O)c1)[C@H](O)[C@H]2c1c(O)cc(O)c2c1O[C@@]1(c3ccc(O)c(O)c3)Oc3cc(O)c4c(c3C2[C@H]1O)O[C@H](c1ccc(O)c(O)c1)[C@H](O)C4c1c(O)cc(O)c2c1O[C@H](c1ccc(O)c(O)c1)[C@H](O)C2` (stereo partly specified), the IC50 against Protein kinase C (PKC) is 15 µM; in test [3] it was “Not Active”. In test [1], the Phorbol displacement was below 50 µM.

Consider `O=C(O[C@@H]1O[C@H]2COC(=O)c3cc(O)c(O)c(O)c3-c3c(cc(O)c(O)c3O)C(=O)O[C@H]2[C@@H]2OC(=O)c3cc(O)c(O)c(O)c3-c3c(cc(O)c(O)c3O)C(=O)O[C@H]12)c1cc(O)c(O)c(Oc2c(O)c(O)c(O)c3c2C(=O)O[C@H]2[C@@H]4OC(=O)c5cc(O)c(O)c(O)c5-c5c(cc(O)c(O)c5O)C(=O)O[C@@H]4[C@H](OC(=O)c4cc(O)c(O)c(Oc5c(O)c(O)c(O)c6c5C(=O)O[C@H]5[C@@H]7OC(=O)c8cc(O)c(O)c(O)c8-c8c(cc(O)c(O)c8O)C(=O)O[C@@H]7[C@H](OC(=O)c7cc(O)c(O)c(Oc8c(O)c(O)c(O)c9c8C(=O)O[C@H]8[C@@H]%10OC(=O)c%11cc(O)c(O)c(O)c%11-c%11c(cc(O)c(O)c%11O)C(=O)O[C@@H]%10[C@H](OC(=O)c%10cc(O)c(O)c(O)c%10)O[C@H]8COC(=O)c8cc(O)c(O)c(O)c8-9)c7)O[C@H]5COC(=O)c5cc(O)c(O)c(O)c5-6)c4)O[C@H]2COC(=O)c2cc(O)c(O)c(O)c2-3)c1`, for which the IC50 stood at 10 µM on Protein kinase C (PKC) and 22 µM in test [2]. The compound further registered a Phorbol displacement in test [1] below 50 µM.
